Patent US20230381215A1, “NOVEL COMBINATION TREATMENT FOR ACUTE MYELOID LEUKEMIA (AML)” (Hoffmann-La Roche Inc., priority 2013, published 2023)

Key:
[1] = tested on: MOLM-13.luc.c4 (MOLM-13 human AML cells); experiment: Antitumor efficacy and survival/increase in life span (ILS) in disseminated MOLM-13.luc.c4 AML model; assay type: in vivo, SCID beige mice; conditions: for tumor burden by BLI photon counts compared to Vehicle-treated control (FIG. 1) / antitumor activity as assessed by tumor burden (BLI) or ILS: monotherapy; for tumor burden by BLI photon counts compared to Vehicle-treated control (FIG. 1): treatment initiated on day 3
Procedure: (§1) Female SCID beige mice (10/group), obtained from Charles River Laboratories (Wilmington, DE) were used when they were approximately 8-12 weeks old and weighed approximately 20-25 grams. The health of the mice was assessed daily by gross observation and analyses of blood samples taken from sentinel animals housed on shared shelf racks. All animals were allowed to acclimate and recover from any shipping-related stress for a minimum of 72 hours prior to experimental use. Autoclaved water and irradiated food (5058-ms Pico Lab mouse chow, Purina Mills, Richmond, IN) were provided ad libitum, and the animals were maintained on a 12 hour light and dark cycle. Cages, bedding and water bottles were autoclaved before use and changed weekly. All animal experiments were conducted in accordance with the Guide for the Care and Use of Laboratory Animals, local regulations, and protocols approved by the Roche Animal Care and Use Committee in an AAALAC accredited facility.
Parental MOLM-13 human AML cells were stably transfected with Luc2 lentiviral particles for 24 hrs in the presence of Polybrene (8 ug/ml) and then selected in the presence of Blasticidin for 3 weeks. Subsequently, one clone was selected by single cell plating in the presence of 0.1 mg/mL G418 and was designated MOLM-13.luc.c4. The lentiviral Luc2 expression plasmid was constructed by incorporating Luc2 gene (Promega) in to pLOC lentiviral plasmid backbone (Thermo Fisher Scientific). Luc2 lentiviral particles were prepared by using Trans-Lentiviral Packaging System (Thermo Fisher Scientific) as recommended.
MOLM-13.luc.c4 was maintained with RPMI 1640 with L-glutamine (2 mM) media (GIBCO/Invitrogen, Carlsbad, CA) supplemented with 10% heat-inactivated Fetal Bovine Serum (HI-FBS; GIBCO/Invitrogen, Carlsbad, CA), and 1% 100 mM sodium pyruvate. Freshly dissociated MOLM13-Luc.c4 cells (1×106 or 5×106) suspended in Phosphate Buffered Saline (PBS) were then intravenously inoculated via the caudal tail vein into female SCID-beige mice.
It was then filtered thru a 0.22 micron filter into a septum sealed vial for intravenous administration. […] Stock cytarabine (Ara-C injection, 100 mg/ml) was diluted in sterile 0.9% sodium chloride to 44 mg/ml according to manufacturer's instructions and dosed at 200 mg/kg iv twice weekly.
Treatment duration was 3 weeks.
(§2) For increased life span (ILS) assessment, animal body weights were measured two to three times per week, and animals were monitored daily for any clinical signs of toxicity or excessive tumor burden (i.e. hind limb paralysis or morbidity). In addition, progression of disease was monitored by in vivo bioluminescent imaging (BLI) using IVIS® Spectrum system. For each BLI session, mice received 100 mg/kg D-luciferin (Caliper Life Sciences/Perkin-Elmer) via ip injections and were imaged at 20 min post luciferin injection at either a 5 s or a 10 s exposure time. Images were captured by the IVIS® Spectrum system and data were collected and analyzed with Living Image 4.2.0 software (Caliper Life Sciences, Hopkinton, MA). Total photon fluxes (ph/s) representing luciferase activity within each fixed region of interest (ROI) covering whole tumors of individual mice were determined. The actual images of mice are not disclosed herein.
Quantification of bioluminescence allowed for direct longitudinal comparison of tumor burden between treatment groups prior to surrogate death end points being reached. Tumor burden was graphically represented as the mean BLI photon flux+standard error of the mean (SEM), and median survival was determined utilizing Kaplan Meier survival analysis. Statistical analysis of comparisons between groups was analyzed by two-way ANOVA, and post-hoc Bonferroni test (GraphPad Prism, version 4.3). Differences between groups were considered to be significant when the probability value (p) was ≤0.05.

[2] = Ara-C 200 mg/kg 2×/week iv; 10/group
Procedure: as §1, with “Cages, bedding and water bottles were autoclaved before use and changed weekly. All animal experiments were conducted in accordance with the Guide for the Care and Use of Laboratory Animals, local regulations, and protocols approved by the Roche Animal Care and Use Committee in an AAALAC accredited facility.” left out
as §2, with “For each BLI session, mice received 100 mg/kg D-luciferin (Caliper Life Sciences/Perkin-Elmer) via ip injections and were imaged at 20 min post luciferin injection at either a 5 s or a 10 s exposure time.” left out, “The actual images of mice are not disclosed herein.” left out

In the case of “4-{[(2R,3S,4R,5S)-3-(3-Chloro-2-fluoro-phenyl)-4-(4-chloro-2-fluoro-phenyl)-4-cyano-5-(2,2-dimethyl-propyl)-pyrrolidine-2-carbonyl]-amino}-3-methoxy-benzoic acid 1-mPEG-carbonyloxy-ethyl ester (mPEG, average MW, 2200) [compound I-B]”, the “% ILS vs. Vehicle control” value ([1]; Cpd I-B 437 mg/kg q7d iv) is reported as 37%, the “Median survival” value ([1]; Cpd I-B 437 mg/kg q7d iv, 5 million cells, treatment from day 3) is reported as 28 days and the “% ILS vs. Vehicle control” value ([1]; Cpd I-B 437 mg/kg q7d iv, listed as Cpd I-B) is reported as “*37%”. For the same compound, the “tumor burden by BLI photon counts compared to Vehicle-treated control (FIG. 1)” value ([1]; 5 million cells) was “significantly reduced photon counts”.

In the case of `Nc1ccn([C@@H]2O[C@H](CO)[C@@H](O)[C@@H]2O)c(=O)n1` [Ara-C, cytarabine, reference compound], the Mortality [2] is reported as 0, the “% ILS vs. Vehicle control” value ([1]; Ara-C 200 mg/kg 2×/wk iv) is reported as 0% and the “Median survival” value ([1]; Ara-C 200 mg/kg 2×/wk iv) is reported as 20 days. For the same compound, the “antitumor activity as assessed by tumor burden (BLI) or ILS” value [1] was “lack of monotherapy activity”, the “tumor burden by BLI photon counts compared to Vehicle-treated control (FIG. 1)” value ([1]; 5 million cells) was “no difference” and the “antitumor activity as assessed by tumor burden (BLI) or ILS” value ([1]; listed as Cytarabine (Ara-C)) was “lack of antitumor activity”.

For `COc1cc(C(=O)O)ccc1NC(=O)[C@@H]1N[C@@H](CC(C)(C)C)[C@](C#N)(c2ccc(Cl)cc2F)[C@H]1c1cccc(Cl)c1F` [compound (A), 4-{[(2R,3S,4R,5S)-4-(4-Chloro-2-fluoro-phenyl)-3-(3-chloro-2-fluoro-phenyl)-4-cyano-5-(2,2-dimethyl-propyl)-pyrrolidine-2-carbonyl]-amino}-3-methoxy-benzoic acid], the “% ILS vs. Vehicle control” value ([1]; Cpd (A) 80 mg/kg qd × 5 po) was “*37%”, the “Median survival” value ([1]; Cpd (A) 80 mg/kg qd × 5 po) was 28 days and the “% ILS vs. Vehicle control” value ([1]; Cpd (A) 100 mg/kg q7d po) was “*22%”. For the same compound, the “Median survival” value ([1]; Cpd (A) 100 mg/kg q7d po) was 25 days.
